The structures appear in SMILES notation. The source made the active and inactive calls.

One assay deals with T1, Leucine aminopeptidase (Plasmodium falciparum 3D7, UniProt Q8IL11).
T1 sequence (Q8IL11 whole entry): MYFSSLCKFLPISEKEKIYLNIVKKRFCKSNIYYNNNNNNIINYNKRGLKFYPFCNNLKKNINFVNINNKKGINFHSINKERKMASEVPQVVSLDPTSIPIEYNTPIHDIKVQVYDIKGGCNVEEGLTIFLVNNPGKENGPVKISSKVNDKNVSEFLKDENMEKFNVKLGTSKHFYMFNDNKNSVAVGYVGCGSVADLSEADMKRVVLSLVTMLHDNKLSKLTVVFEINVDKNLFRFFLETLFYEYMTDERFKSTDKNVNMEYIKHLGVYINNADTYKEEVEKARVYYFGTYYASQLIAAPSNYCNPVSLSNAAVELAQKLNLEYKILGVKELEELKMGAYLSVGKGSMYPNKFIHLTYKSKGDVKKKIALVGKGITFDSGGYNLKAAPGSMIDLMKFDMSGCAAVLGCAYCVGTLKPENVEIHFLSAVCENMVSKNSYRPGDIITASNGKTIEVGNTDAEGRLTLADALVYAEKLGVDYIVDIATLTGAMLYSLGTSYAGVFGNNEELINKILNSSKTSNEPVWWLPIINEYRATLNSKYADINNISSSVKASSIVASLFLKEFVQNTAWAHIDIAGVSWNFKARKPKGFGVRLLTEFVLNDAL
Description: P. falciparum M17LAP inhibitors, primary screen, biochemical, fluorogenic H-Leu-NHMec substrate, 1536-well (AID 1619). Format: functional.

The next assay concerns the target T2, Aminopeptidase N (Plasmodium falciparum FcB1/Columbia, UniProt O96935).
T2 sequence (O96935 whole entry): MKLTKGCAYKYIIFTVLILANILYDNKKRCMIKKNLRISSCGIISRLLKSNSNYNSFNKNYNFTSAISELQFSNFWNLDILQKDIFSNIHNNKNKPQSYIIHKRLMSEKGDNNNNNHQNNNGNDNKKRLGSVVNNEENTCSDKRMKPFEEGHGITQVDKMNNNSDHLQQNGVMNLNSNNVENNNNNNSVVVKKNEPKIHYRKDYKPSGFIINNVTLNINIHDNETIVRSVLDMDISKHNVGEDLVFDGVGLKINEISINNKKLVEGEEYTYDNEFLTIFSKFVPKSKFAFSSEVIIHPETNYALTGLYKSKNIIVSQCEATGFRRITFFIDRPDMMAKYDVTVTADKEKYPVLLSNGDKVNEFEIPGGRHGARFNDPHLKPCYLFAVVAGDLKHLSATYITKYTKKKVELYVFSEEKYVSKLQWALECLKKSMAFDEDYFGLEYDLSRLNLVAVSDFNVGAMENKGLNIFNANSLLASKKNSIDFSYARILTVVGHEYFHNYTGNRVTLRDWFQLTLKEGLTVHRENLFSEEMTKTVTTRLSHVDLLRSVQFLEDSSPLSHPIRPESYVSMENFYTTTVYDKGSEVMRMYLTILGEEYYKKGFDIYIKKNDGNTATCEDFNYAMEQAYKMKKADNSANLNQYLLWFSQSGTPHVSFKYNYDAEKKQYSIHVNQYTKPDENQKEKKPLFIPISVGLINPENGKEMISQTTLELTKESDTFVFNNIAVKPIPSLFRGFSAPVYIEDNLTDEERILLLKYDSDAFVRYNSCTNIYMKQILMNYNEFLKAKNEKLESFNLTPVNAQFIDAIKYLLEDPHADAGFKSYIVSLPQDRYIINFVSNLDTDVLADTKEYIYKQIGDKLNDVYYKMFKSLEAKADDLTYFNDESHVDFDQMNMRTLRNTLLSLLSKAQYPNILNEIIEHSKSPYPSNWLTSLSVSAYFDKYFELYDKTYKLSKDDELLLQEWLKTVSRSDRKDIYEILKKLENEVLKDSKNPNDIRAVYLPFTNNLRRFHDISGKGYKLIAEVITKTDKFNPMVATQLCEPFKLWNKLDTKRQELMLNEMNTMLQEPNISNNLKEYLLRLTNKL
Briefly: P. falciparum M1AAP inhibitors, biochemical, fluorogenic H-Leu-NHMec substrate, 1536-well (AID 1445). Further details: species or system Plasmodium falciparum 3D7, 3D7.

The target of assay [1] is T3, Histone-lysine N-methyltransferase NSD2 (Homo sapiens, UniProt O96028).
T3 sequence (O96028 whole entry): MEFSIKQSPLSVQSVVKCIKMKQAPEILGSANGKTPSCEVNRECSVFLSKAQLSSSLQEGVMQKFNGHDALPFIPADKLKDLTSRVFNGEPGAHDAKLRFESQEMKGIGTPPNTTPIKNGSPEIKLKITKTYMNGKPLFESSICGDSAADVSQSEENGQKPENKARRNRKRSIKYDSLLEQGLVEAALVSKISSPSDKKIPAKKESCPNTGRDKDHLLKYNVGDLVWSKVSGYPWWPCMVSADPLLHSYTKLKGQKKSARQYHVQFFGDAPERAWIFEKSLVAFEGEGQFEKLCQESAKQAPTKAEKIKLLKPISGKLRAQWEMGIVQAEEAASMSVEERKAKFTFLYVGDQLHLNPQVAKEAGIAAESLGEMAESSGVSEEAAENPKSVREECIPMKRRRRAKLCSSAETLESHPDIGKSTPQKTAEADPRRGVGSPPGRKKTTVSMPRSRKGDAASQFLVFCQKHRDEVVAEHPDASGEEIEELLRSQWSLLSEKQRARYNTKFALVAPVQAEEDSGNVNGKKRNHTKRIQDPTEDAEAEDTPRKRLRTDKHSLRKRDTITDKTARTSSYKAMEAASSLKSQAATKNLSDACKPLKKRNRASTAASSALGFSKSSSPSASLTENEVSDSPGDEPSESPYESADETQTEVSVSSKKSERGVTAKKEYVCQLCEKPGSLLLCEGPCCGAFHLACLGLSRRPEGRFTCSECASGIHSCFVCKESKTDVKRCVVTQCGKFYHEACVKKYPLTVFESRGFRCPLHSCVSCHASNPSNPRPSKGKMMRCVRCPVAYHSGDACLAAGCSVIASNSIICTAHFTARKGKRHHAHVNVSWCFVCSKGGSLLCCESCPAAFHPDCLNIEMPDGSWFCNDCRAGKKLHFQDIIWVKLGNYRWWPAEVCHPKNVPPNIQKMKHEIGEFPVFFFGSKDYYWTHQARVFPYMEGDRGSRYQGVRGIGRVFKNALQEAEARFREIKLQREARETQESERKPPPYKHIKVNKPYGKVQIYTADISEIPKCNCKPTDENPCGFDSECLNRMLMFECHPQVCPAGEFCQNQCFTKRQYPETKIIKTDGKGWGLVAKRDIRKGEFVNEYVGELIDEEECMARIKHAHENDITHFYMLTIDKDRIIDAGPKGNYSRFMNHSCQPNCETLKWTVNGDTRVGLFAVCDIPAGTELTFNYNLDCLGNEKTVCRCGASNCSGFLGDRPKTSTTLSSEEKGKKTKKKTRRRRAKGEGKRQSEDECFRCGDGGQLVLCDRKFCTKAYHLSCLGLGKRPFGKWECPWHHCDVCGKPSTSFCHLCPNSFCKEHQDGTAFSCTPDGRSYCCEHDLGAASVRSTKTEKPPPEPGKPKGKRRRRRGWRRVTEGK
The format is biochemical.

The target in assay [2] is T4, Dual specificity protein phosphatase 6 (Rattus norvegicus, UniProt Q64346).
T4 sequence (Q64346 whole entry): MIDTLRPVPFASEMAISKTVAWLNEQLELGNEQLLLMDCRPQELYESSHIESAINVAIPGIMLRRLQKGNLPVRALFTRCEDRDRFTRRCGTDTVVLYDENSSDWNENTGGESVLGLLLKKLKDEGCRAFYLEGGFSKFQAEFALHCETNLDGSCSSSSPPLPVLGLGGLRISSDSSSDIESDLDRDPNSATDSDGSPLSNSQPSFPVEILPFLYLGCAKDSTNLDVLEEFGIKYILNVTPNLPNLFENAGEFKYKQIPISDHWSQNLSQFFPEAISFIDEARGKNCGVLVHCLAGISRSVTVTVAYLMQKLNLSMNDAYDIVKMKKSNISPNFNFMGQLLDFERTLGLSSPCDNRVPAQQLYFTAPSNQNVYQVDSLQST
Briefly: MKP-3 phosphatase inhibitors, primary screen, biochemical, rat enzyme, in vitro (AID 425).

The target of a further assay is Prothrombin (Homo sapiens, UniProt P00734). Description: Thrombin 1536 HTS Dose Response Confirmation. [Related pubchem assays: 1046 (Thrombin 1536 HTS; hits were confirmed in this assay)]. The format is functional.
In a further assay the target is Paired box protein Pax-8 (Homo sapiens, UniProt Q06710). Briefly: inhibitors of PAX8-driven TPO luciferase reporter, dose response, RMG-I cells, cherry-pick (AID 687027).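 Also: luciferase reporter driven by Pax8 target thyroperoxidase promoter measured by SteadyGlo luminescence.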 Format: functional, cell-based. (In a reporter assay the amount or activity of a reporter protein is the signal.)
Paired box protein Pax-8, sequence (Q06710 whole entry): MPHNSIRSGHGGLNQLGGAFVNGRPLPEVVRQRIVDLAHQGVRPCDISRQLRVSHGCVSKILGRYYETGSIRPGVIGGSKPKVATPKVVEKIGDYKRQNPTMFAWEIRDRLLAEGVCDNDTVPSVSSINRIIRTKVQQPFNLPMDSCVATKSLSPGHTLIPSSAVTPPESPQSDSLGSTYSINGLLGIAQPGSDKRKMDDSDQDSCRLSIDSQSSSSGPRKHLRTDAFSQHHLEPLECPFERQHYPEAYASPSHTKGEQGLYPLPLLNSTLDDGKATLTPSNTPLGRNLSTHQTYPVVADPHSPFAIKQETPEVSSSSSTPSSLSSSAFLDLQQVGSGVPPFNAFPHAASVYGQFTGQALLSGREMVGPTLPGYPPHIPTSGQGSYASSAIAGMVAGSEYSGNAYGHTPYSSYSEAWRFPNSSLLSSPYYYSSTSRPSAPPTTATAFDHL
Assay [3] can be described thus: NIH:OVCAR-3 ovarian cancer cell cytotoxicity, dose response, PAX8 inhibitor project, plate reader, dry powder samples (AID 743044). The format is functional, cell-based.
The nature of assay [4]: cytotoxicity in OVCAR8 ovarian cancer cells, dose response, PAX8 project, cell-based, plate reader, dry powder samples (AID 743197). Format: functional. The settings on record: OVCAR-8.
Assay [5] is described as follows: P. falciparum 3D7-ScDHODH growth inhibitors, dose response, SYBR Green, dry powder samples (AID 1159570).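 Also: parasite growth measured after 72 hours of compound exposure.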 The format is functional, cell-based.
Assay [6] in a line: P. falciparum Dd2 growth inhibitors, dose response, SYBR Green, cherry-picked samples (AID 1159567). Format: functional, cell-based.
Assay [7] is described as follows: P. falciparum Dd2 growth inhibitors, dose response, SYBR Green, dry powder samples (AID 1159566).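 Also: potency for growth inhibition with lower SYBR green DNA signal.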 The format is functional, cell-based.
Assay [8] in a line: P. falciparum ATP4 D1247Y mutant growth inhibitors, dose response, NITD609-resistant line, SYBR Green, dry powder (AID 1159571).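 Also: parasites synchronized at ring stage by sorbitol before testing.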 Format: functional, cell-based.
The target of the next assay is T5, Coagulation factor XII (Homo sapiens, UniProt P00748).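 Also: activated factor XIIa alpha cleaving a fluorogenic AMC peptide substrate; inhibitor potency from loss of enzyme activity.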
T5 sequence (P00748 whole entry): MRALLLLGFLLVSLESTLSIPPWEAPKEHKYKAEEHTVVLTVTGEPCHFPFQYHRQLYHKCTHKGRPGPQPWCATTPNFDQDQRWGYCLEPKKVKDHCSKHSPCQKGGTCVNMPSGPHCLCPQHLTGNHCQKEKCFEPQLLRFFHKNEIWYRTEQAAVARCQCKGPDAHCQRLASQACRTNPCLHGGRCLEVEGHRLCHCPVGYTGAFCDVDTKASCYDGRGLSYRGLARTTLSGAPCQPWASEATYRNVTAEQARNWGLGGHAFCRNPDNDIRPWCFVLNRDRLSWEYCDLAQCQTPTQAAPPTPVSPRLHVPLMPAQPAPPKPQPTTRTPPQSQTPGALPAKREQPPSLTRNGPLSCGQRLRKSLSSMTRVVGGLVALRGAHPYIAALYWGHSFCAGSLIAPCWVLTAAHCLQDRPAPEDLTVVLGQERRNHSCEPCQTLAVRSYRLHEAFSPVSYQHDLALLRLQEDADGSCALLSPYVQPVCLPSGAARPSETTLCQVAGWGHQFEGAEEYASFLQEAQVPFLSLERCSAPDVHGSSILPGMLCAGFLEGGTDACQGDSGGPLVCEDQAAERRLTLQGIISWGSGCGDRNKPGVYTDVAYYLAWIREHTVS
Format: functional.

The test system of assay [9] is Streptococcus sp. 'group A'. Description: growth inhibition of control SK(-) GAS strain, dose response, counter-screen for streptokinase expression inhibitor project, luminescence, kanamycin, BacTiterGlo, confirmation (AID 1900). Format: functional, organism-based.
The test system of another assay is Streptococcus. Briefly: Group A Streptococcus viability loss, dose response, counter-screen for streptokinase expression inhibitor project, luminescence, BacTiterGlo (AID 1915).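 Also: potency for reduction of bacterial viability or growth.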 The format is functional, organism-based. A general note: The purpose of a counterscreen is to sort out artefacts and off-target activity.
The subject of the next assay is INS1. Description: beta cell apoptosis inhibitors, cytokine rescue, dose response, luminescence, retest (AID 449756).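 Also: cell death triggered by IL-1 beta plus TNF-alpha plus IFN-gamma mixture; protective hits raise ATP signal compared with cytokine alone wells.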 Format: functional, cell-based. The settings on record: Rattus norvegicus.

With `Cc1ccc(C)c(N2C(=N)S/C(=C\c3ccc(-c4ccccc4C(=O)O)o3)C2=O)c1`, the IC50 – broadly, the concentration that gives 50% inhibition – was 32.6 µM (active) on Leucine aminopeptidase and 10.4 µM (active) on Aminopeptidase N. In addition, the AC50 (in general, the concentration giving half of the maximal activity seen) in [1] was 10.4 µM (active).

For `COC(=O)c1ccccc1NC(=O)Nc1cc(C)cc(C)n1`, the IC50 in assay [2] is > 100 µM (not active).

`C=CCNCCCCOc1ccccc1`: in assay [1], the AC50 was > 20 µM (inactive).

For `Cn1c(SCC(=O)NC2CCCC2)nnc1-c1ccc(S(=O)(=O)N2CCOCC2)cc1`, at Prothrombin, the IC50 is recorded as > 50 µM (not active).

In the case of `O=C(c1ccc(-c2ccccc2)cc1)N1CCN(Cc2ccccn2)CC1`, the IC50 in [2] is given as > 100 µM (not active).

As to `N#Cc1sc2nc(-c3ccccc3)cc(C(F)(F)F)c2c1N`, the IC50 against Prothrombin is listed as > 50 µM (not active).

Consider `CCN(CC)CCCNc1ncnc2scc(-c3ccc(F)cc3)c12`, for which the AC50 in assay [1] was > 20 µM (inactive).

On to `Cc1ccc(S(=O)(=O)N(C)C[C@H]2Oc3cc(C#Cc4ccncc4)ccc3S(=O)(=O)N([C@@H](C)CO)C[C@@H]2C)cc1`, for which the AC50 is 2.52 µM (active) on Paired box protein Pax-8; 49.1 µM (active) in [3]; > 70 µM (inactive) in [4]; 1.37 µM (active) in assay [5]; 1.68 µM (active) in [6]; 1.41 µM (active) in assay [7]. In assay [8], the AC50 was 1.64 µM (active).

Regarding `Cc1noc(C)c1S(=O)(=O)Nc1ccc2c(c1)C(=O)N([C@@H](C)CO)C[C@H](C)[C@@H](CN(C)C(=O)Nc1ccc(C(F)(F)F)cc1)OCCCC[C@H](C)O2`, the AC50 is 4.92 µM (active) on Paired box protein Pax-8, 30.9 µM (active) in assay [3] and > 70 µM (inactive) in [4].

Take `O=C(N/N=C/c1ccc(OCc2cnc(Cl)s2)cc1)c1ccncc1`: the values for the IC50 on Prothrombin and on Coagulation factor XII were > 50 µM (not active) and > 50 µM (inactive), respectively.

On to `O=C(N/N=C/c1cccc(F)c1)c1c(O)nc2ccccc2c1O`, for which the concentration for a half-maximal effect (EC50) (in general, the concentration giving half of the maximal effect) in assay [9] is 2.87 µM (active); with Streptococcus, 3.03 µM (active). Further, the 50% inhibitory concentration (IC50) against Prothrombin is > 50 µM (not active). In the assay with INS1, the AC50 is 3.63 µM (active).

`COc1ccc(NC(=O)N2CCCCN3[C@@H](CO)[C@H](c4ccc(C#Cc5ccccn5)cc4)[C@@H]3C2)cc1`: the half-maximal activity concentration (AC50) in [5] is 0.116 µM (active); in assay [6] it was < 0.3 µM (active); in assay [7] it was 0.155 µM (active); in assay [8], 0.132 µM (active).

Source of the values: ChEMBL document CHEMBL1201862, “PubChem BioAssay data set” (2004).
